Results published in ChEMBL document CHEMBL6083208, “Integrating amino acids into Bcr-Abl inhibitors: design, synthesis, biological evaluation, and in silico studies” (RSC Med Chem, 2024).
The source made the active and inactive calls. The calls are words filed in the database; no cut-off is given here.

Legend:
K562 [1] = assay: cells; settings: Homo sapiens, K562, 48 h, read-out: Activity
THP-1 = assay: Antiproliferative activity against human THP-1 cells after 48 hrs by MTT assay; type: functional; parameters: concentration or dose not given beside the values
K562 [2] = assay: cells; settings: Homo sapiens, K562, 48 h, read-out: Activity; remark: listed apart in the source
K562 [3] = assay: cells; settings: Homo sapiens, K562, 48 h, read-out: Activity; remark: listed apart in the source
HEK293 = assay: Antiproliferative activity against HEK293 cells after 48 hrs by MTT assay; type: toxicity, cell-based; parameters: concentration or dose not given beside the values; settings: human, hek293, 48 h
K562 [4] = assay: cells; settings: Homo sapiens, K562, 48 h
K562 [5] = assay: Induction of apoptosis in human K562 cells assessed as late apoptotic cells at 1 uM measured after 48 hrs by annexin-V/FITC and propidium iodide double staining based flow cytometry analysis (reference value: 10.34%); type: functional
[6] = molecular target: T1, Bcr/Abl fusion protein (Homo sapiens) (UniProt P00519+P11274); assay: Inhibition of wild type BCR-ABL in human K562 cells assessed as inhibition of Bcr-Abl phosphorylation level at high concentration measured after 48 hrs by Western blot analysis; type: cell-based
T1 sequence (P00519 whole entry, looked up, the tested form may be a part): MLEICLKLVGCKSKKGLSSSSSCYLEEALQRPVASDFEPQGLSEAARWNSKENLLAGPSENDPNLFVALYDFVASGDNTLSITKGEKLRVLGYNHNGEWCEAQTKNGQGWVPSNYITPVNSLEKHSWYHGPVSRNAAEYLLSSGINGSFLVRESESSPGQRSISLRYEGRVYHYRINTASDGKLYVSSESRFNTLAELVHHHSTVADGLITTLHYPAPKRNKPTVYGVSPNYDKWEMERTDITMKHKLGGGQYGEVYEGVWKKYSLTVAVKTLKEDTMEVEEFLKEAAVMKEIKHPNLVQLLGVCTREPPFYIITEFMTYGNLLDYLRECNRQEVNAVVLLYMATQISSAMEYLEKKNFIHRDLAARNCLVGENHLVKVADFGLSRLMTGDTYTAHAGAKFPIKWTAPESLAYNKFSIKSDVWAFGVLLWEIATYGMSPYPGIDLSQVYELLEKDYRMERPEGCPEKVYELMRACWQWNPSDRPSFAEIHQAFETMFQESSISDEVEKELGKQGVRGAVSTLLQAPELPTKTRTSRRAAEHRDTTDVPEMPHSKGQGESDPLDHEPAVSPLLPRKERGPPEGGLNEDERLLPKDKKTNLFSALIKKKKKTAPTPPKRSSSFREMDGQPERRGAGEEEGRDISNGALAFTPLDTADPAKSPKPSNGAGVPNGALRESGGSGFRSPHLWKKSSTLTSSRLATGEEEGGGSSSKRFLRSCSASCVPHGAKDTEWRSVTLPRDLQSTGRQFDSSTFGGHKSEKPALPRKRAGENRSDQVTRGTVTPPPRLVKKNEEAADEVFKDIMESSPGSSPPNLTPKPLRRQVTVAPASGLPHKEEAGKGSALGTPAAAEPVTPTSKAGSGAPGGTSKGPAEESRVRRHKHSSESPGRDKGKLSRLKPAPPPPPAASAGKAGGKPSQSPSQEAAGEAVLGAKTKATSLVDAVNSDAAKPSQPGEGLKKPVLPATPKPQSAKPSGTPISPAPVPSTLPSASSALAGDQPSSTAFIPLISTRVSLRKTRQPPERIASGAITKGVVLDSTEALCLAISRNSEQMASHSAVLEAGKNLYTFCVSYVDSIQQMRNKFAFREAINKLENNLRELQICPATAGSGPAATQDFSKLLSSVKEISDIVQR
T1 sequence (P11274 whole entry, looked up, the tested form may be a part): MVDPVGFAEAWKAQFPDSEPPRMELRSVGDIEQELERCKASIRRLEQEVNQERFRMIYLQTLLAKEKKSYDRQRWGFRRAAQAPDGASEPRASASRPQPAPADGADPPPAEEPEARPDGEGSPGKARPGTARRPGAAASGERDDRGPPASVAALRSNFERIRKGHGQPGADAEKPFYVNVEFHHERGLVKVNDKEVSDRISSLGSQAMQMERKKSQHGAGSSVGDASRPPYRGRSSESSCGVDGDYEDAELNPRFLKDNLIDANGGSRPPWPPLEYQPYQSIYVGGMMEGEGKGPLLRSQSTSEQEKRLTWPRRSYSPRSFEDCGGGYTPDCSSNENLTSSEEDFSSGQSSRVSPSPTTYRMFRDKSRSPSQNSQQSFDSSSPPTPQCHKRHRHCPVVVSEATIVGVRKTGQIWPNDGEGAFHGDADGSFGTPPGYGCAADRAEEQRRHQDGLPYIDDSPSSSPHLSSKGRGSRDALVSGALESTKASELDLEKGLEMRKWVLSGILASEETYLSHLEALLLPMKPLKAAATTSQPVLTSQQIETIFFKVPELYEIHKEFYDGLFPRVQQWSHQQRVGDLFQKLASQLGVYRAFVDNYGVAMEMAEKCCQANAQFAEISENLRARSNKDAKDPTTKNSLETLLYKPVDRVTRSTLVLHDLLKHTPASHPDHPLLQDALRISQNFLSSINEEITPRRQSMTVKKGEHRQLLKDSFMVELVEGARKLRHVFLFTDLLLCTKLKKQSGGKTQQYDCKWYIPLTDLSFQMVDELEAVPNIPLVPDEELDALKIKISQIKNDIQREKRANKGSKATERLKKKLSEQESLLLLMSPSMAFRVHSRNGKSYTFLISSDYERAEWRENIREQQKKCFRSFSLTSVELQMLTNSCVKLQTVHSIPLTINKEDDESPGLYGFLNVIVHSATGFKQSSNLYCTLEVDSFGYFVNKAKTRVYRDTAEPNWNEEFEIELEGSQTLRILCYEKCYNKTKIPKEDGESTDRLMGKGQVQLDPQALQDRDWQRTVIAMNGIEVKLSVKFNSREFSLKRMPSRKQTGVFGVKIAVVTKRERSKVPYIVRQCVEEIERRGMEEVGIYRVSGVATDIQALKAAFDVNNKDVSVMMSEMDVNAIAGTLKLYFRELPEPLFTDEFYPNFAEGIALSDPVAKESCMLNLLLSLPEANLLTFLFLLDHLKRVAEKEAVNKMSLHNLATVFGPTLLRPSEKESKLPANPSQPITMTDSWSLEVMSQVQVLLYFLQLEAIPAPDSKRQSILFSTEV

K562 [7] = assay: Induction of apoptosis in human K562 cells assessed as necrotic cells at 20 uM measured after 48 hrs by annexin-V/FITC and propidium iodide double staining based flow cytometry analysis (reference value: 0.03%); type: functional
K562 [8] = assay: Induction of apoptosis in human K562 cells assessed as necrotic cells at 10 uM measured after 48 hrs by annexin-V/FITC and propidium iodide double staining based flow cytometry analysis (reference value: 0.03%); type: functional
K562 [9] = assay: Induction of cell cycle arrest in human K562 cells assessed as increase in accumulation of cells at G0/G1 phase measured after 48 hrs by PI staining based flow cytometry analysis; type: functional; settings: dose 1-20 µM
K562 [10] = assay: Induction of apoptosis in human K562 cells assessed as early apoptotic cells at 20 uM measured after 48 hrs by annexin-V/FITC and propidium iodide double staining based flow cytometry analysis (reference value: 2.16%); type: functional
K562 [11] = assay: Induction of apoptosis in human K562 cells assessed as necrotic cells at 1 uM measured after 48 hrs by annexin-V/FITC and propidium iodide double staining based flow cytometry analysis (reference value: 0.03%); type: functional
K562 [12] = assay: Induction of apoptosis in human K562 cells assessed as viable cells at 20 uM measured after 48 hrs by annexin-V/FITC and propidium iodide double staining based flow cytometry analysis (reference value: 87.47%); type: functional; settings: read-out: Activity
K562 [13] = assay: Induction of apoptosis in human K562 cells assessed as late apoptotic cells at 10 uM measured after 48 hrs by annexin-V/FITC and propidium iodide double staining based flow cytometry analysis (reference value: 10.34%); type: functional
K562 [14] = assay: Induction of apoptosis in human K562 cells assessed as early apoptotic cells at 1 uM measured after 48 hrs by annexin-V/FITC and propidium iodide double staining based flow cytometry analysis (reference value: 2.16%); type: functional
[15] = molecular target: T1, Bcr/Abl fusion protein (Homo sapiens); assay: Inhibition of wild type BCR-ABL in human K562 cells assessed as inhibition of Bcr-Abl phosphorylation level at 20 uM measured after 48 hrs by Western blot analysis; type: cell-based
[16] = molecular target: T1, Bcr/Abl fusion protein (Homo sapiens); assay: Inhibition of wild type BCR-ABL in human K562 cells assessed as inhibition of STAT5 phosphorylation level at high concentration measured after 48 hrs by Western blot analysis; type: cell-based
K562 [17] = assay: Induction of apoptosis in human K562 cells assessed as late apoptotic cells at 20 uM measured after 48 hrs by annexin-V/FITC and propidium iodide double staining based flow cytometry analysis (reference value: 10.34%); type: functional
BaF3 [18] = assay: Antiproliferative activity against mouse BaF3 cells harbouring Bcr-Abl T315I assessed of cell viability at 30 uM incubated for 72 hrs by Celltiter-glo luminescent cell viability assay relative to control; type: functional
Bcr/Abl fusion protein = Bcr/Abl fusion protein (Homo sapiens, UniProt P00519); assay: Inhibition of wild type Bcr-Abl (unknown origin) using Abltide as substrate incubated for 1 hr by luminescence based ADP-glo assay; type: protein assay
Bcr/Abl fusion protein, sequence (P00519 whole entry, the tested form may be a part): as the sequence (P00519 whole entry, looked up, the tested form may be a part) above
Bcr/Abl fusion protein, sequence (P11274 whole entry, further chain, the tested form may be a part): as the sequence (P11274 whole entry, looked up, the tested form may be a part) above

[19] = molecular target: T1, Bcr/Abl fusion protein (Homo sapiens); assay: Inhibition of wild type BCR-ABL in human K562 cells assessed as inhibition of STAT5 phosphorylation level at 20 uM measured after 48 hrs by Western blot analysis; type: cell-based
[20] = Inhibition of Bcr-Abl T315Ialpha mutant (unknown origin) using Abltide as substrate incubated for 1 hr by luminescence based ADP-glo assay; parameters: species or system Homo sapiens
BaF3 [21] = assay: Antiproliferative activity against mouse BaF3 cells harbouring Bcr-Abl T315I assessed of cell viability at 2 uM incubated for 72 hrs by Celltiter-glo luminescent cell viability assay relative to control; type: functional
K562 [22] = assay: Induction of apoptosis in human K562 cells assessed as early apoptotic cells at 10 uM measured after 48 hrs by annexin-V/FITC and propidium iodide double staining based flow cytometry analysis (reference value: 2.16%); type: functional
K562 [23] = assay: Induction of apoptosis in human K562 cells assessed as viable cells at 1 uM measured after 48 hrs by annexin-V/FITC and propidium iodide staining double based flow cytometry analysis (reference value: 87.47%); type: functional; settings: read-out: Activity
K562 [24] = assay: Induction of apoptosis in human K562 cells assessed as viable cells at 10 uM measured after 48 hrs by annexin-V/FITC and propidium iodide double staining based flow cytometry analysis (reference value: 87.47%); type: functional; settings: read-out: Activity
BaF3 [25] = assay: Antiproliferative activity against mouse BaF3 cells harbouring Bcr-Abl T315I assessed of cell viability at 10 uM incubated for 72 hrs by Celltiter-glo luminescent cell viability assay relative to control; type: functional
K562 [26] = assay: Induction of apoptosis in human K562 cells assessed as late apoptotic cells at 1 uM measured after 48 hrs by annexin-V/FITC and propidium iodide double staining based flow cytometry analysis (reference value: 12.03%); type: functional
K562 [27] = assay: Induction of apoptosis in human K562 cells assessed as early apoptotic cells at 10 uM measured after 48 hrs by annexin-V/FITC and propidium iodide double staining based flow cytometry analysis (reference value: 1.96%); type: functional
K562 [28] = assay: Induction of apoptosis in human K562 cells assessed as viable cells at 15 uM measured after 48 hrs by annexin-V/FITC and propidium iodide double staining based flow cytometry analysis (reference value: 85.73%); type: functional; settings: read-out: Activity
K562 [29] = assay: Induction of apoptosis in human K562 cells assessed as necrotic cells at 15 uM measured after 48 hrs by annexin-V/FITC and propidium iodide double staining based flow cytometry analysis (reference value: 0.27%); type: functional
K562 [30] = assay: Induction of apoptosis in human K562 cells assessed as late apoptotic cells at 15 uM measured after 48 hrs by annexin-V/FITC and propidium iodide double staining based flow cytometry analysis (reference value: 12.03%); type: functional
K562 [31] = assay: Induction of cell cycle arrest in human K562 cells assessed as reduction in accumulation of cells at S phase at 1 to 15 uM measured after 48 hrs by PI staining based flow cytometry analysis; type: functional; settings: dose 1-15 µM
K562 [32] = assay: Induction of apoptosis in human K562 cells assessed as necrotic cells at 1 uM measured after 48 hrs by annexin-V/FITC and propidium iodide double staining based flow cytometry analysis (reference value: 0.27%); type: functional
K562 [33] = assay: Induction of apoptosis in human K562 cells assessed as viable cells at 1 uM measured after 48 hrs by annexin-V/FITC and propidium iodide double staining based flow cytometry analysis (reference value: 85.73%); type: functional; settings: read-out: Activity
K562 [34] = assay: Induction of apoptosis in human K562 cells assessed as early apoptotic cells at 15 uM measured after 48 hrs by annexin-V/FITC and propidium iodide double staining based flow cytometry analysis (reference value: 1.96%); type: functional
K562 [35] = assay: Induction of apoptosis in human K562 cells assessed as late apoptotic cells at 10 uM measured after 48 hrs by annexin-V/FITC and propidium iodide double staining based flow cytometry analysis (reference value: 12.03%); type: functional
K562 [36] = assay: Induction of apoptosis in human K562 cells assessed as viable cells at 10 uM measured after 48 hrs by annexin-V/FITC and propidium iodide double staining based flow cytometry analysis (reference value: 85.73%); type: functional; settings: read-out: Activity
K562 [37] = assay: Induction of apoptosis in human K562 cells assessed as early apoptotic cells at 1 uM measured after 48 hrs by annexin-V/FITC and propidium iodide double staining based flow cytometry analysis (reference value: 1.96%); type: functional
K562 [38] = assay: Induction of cell cycle arrest in human K562 cells assessed as increase in accumulation of cells at G0/G1 phase at 1 to 15 uM measured after 48 hrs by PI staining based flow cytometry analysis; type: functional; settings: dose 1-15 µM
K562 [39] = assay: Induction of apoptosis in human K562 cells assessed as necrotic cells at 10 uM measured after 48 hrs by annexin-V/FITC and propidium iodide double staining based flow cytometry analysis (reference value: 0.27%); type: functional

## Cc1ccc(NC(=O)c2ccc(CN3CCN(C)CC3)cc2)cc1Nc1nccc(-c2cccnc2)n1 [IMATINIB]
K562 [1]
  viability at 10 µM: 67.4%
THP-1
  Activity: 100%
K562 [2]
  viability at 5 µM: 74.3%
K562 [3]
  viability at 1 µM: 72.9%
HEK293
  Activity: 87%
K562 [4]
  IC50: 2.03 nM

## CC(=O)Nc1cc(-c2ccc(C(=O)N[C@@H](COC(C)(C)C)C(=O)Nc3ccc(Cl)c(C(F)(F)F)c3)cc2)ccn1
K562 [5]
  Activity: 24.67%
[6]
  inhibition: Active
K562 [7]
  Activity: 0.07%
K562 [8]
  Activity: 0.07%
K562 [9]
  Activity: Dose-dependent-effect
K562 [10]
  Activity: 1.52%
K562 [11]
  Activity: 0.07%
K562 [12]
  viability at 20 µM: 31.8%
K562 [13]
  Activity: 38.85%
K562 [14]
  Activity: 1.37%
THP-1
  Activity: 66%
[15]
  inhibition: Active
[16]
  inhibition: Active
K562 [17]
  Activity: 66.61%
BaF3 [18]
  inhibition at 30 µM: 98.1%
Bcr/Abl fusion protein
  IC50: 0.231 nM
[19]
  inhibition: Active
HEK293
  Activity: 95%
[20]
  IC50: 37.5 nM
BaF3 [21]
  inhibition at 2 µM: 7.66%
K562 [4]
  IC50: 0.06 nM
K562 [22]
  Activity: 1.64%
K562 [23]
  viability at 1 µM: 73.9%
K562 [24]
  viability at 10 µM: 59.4%
BaF3 [25]
  inhibition at 10 µM: 64.1%

## CC(C)(C)C(=O)Nc1cc(-c2ccc(C(=O)N[C@@H](CO)C(=O)Nc3ccc(Cl)c(C(F)(F)F)c3)cc2)ccn1
K562 [26]
  Activity: 16.63%
[6]
  inhibition: Active
K562 [27]
  Activity: 2.83%
K562 [28]
  viability at 15 µM: 69.6%
K562 [29]
  Activity: 3.98%
K562 [30]
  Activity: 24.21%
K562 [31]
  Activity: inactive
THP-1
  Activity: 54%
[15]
  inhibition: Active
K562 [32]
  Activity: 1.75%
K562 [33]
  viability at 1 µM: 76.5%
[16]
  inhibition: Active
K562 [34]
  Activity: 2.21%
K562 [35]
  Activity: 21.34%
K562 [36]
  viability at 10 µM: 74.4%
BaF3 [18]
  inhibition at 30 µM: 99.2%
Bcr/Abl fusion protein
  IC50: 5.01 nM
[19]
  inhibition: Active
K562 [37]
  Activity: 5.12%
HEK293
  Activity: 87%
[20]
  IC50: 122 nM
K562 [38]
  Activity: inactive
BaF3 [21]
  inhibition at 2 µM: 0.2%
K562 [4]
  IC50: 2.04 nM
K562 [39]
  Activity: 1.39%
BaF3 [25]
  inhibition at 10 µM: 99.9%
